Experimental findings from ChEMBL document CHEMBL1151933, “Identification of a disruptor of the MDM2-p53 protein-protein interaction facilitated by high-throughput in silico docking” (Bioorg Med Chem Lett, 2009) are described below.

The structures appear in SMILES notation.

A short description of test [1]: Inhibition of GST-tagged MDM2 (1-150) / full-length His6-tagged p53 interaction expressed in Escherichia coli by alphascreen assay.
Test [2] can be described thus: Inhibition of GST-tagged MDM2/His6-tagged p53 interaction by ELISA.
Test [3] in a line: Inhibition of GST-tagged MDM2/His6-tagged p53 interaction at 100 uM by ELISA. A general note: ELISA stands for enzyme-linked immunosorbent assay.

In general, IC50 refers to the concentration that gives 50% inhibition. Read a low IC50 as greater potency. A word on the inhibition: it is the change of the read-out against control, counted positive when it falls.

As for `c1ccc(/C(=N/Nc2nc3ccccc3s2)c2ccccn2)cc1.c1ccc(/C(=N\Nc2nc3ccccc3s2)c2ccccn2)cc1` (mixture of isomers; form 1), half-maximal inhibition in test [1] (IC50) was put at 13 µM.

As to `c1ccc(/C(=N/Nc2nc3ccccc3s2)c2ccccn2)cc1.c1ccc(/C(=N\Nc2nc3ccccc3s2)c2ccccn2)cc1` (mixture of isomers; form 2) [listing 1 of 2 here], the IC50 in test [2] turned out to be 20 µM; in test [1] it was 25 µM.

As to `c1ccc(/C(=N/Nc2nc3ccccc3s2)c2ccccn2)cc1.c1ccc(/C(=N\Nc2nc3ccccc3s2)c2ccccn2)cc1` (mixture of isomers; form 2) [listing 2 of 2 here], in test [3], the inhibition was greater than 50%.

For `COc1ccc(C2=N[C@@H](c3ccc(Cl)cc3)[C@@H](c3ccc(Cl)cc3)N2C(=O)N2CCNC(=O)C2)c(OC(C)C)c1` [NUTLIN-3], in test [1], 0.25 µM corresponded to half-maximal inhibition (IC50).
